Test results from patent EP2266622A2, “Prodrugs containing novel bio-cleavable linkers” (Piramal Life Sciences Limited, priority 2004, dated 2006).

Columns and labels:
[1] = system: carrageenan-induced rat paw edema; test: Carrageenan-induced rat paw edema model; format: in vivo; conditions: 75 mg/kg equivalent dose of aspirin, p.o.
Method: Male or female Sprague-Dawley rats weighing 150-200 g were used in the study. The rats were fed normal standard laboratory chow and maintained under standard conditions (room temperature of 22 ± 2 °C; 50 ± 10 % relative humidity; artificial light 06:00 to 18:00). All experimental procedures mentioned below are approved by institutional animal research committees and were performed in accordance with standard guidelines for the treatment of animals.
Anti-inflammatory activity of test compounds was measured in carrageenan-induced rat paw edema model (Takeuchi et al., J. Pharmacol. Exp. Ther. 1998, 286 (1), 115-121). […] We have not yet evaluated I-C1-NOPD5Bin this efficacy test.

mucosal damage = conditions: rats, oral, 100 mg/kg equivalent doses, 3 hours after administration
[2] = In vitro plasma stability; conditions: rat plasma at 37 °C, 30 minutes incubation, HPLC analysis
Method: HPLC: Waters Allience analytical HPLC equipped with 2996 PDA detector and Empower software were used to analyze the samples.
HPLC Column: Waters X-Terra RP-18 analytical column, 150 X 3.9 mm, 5 .
HPLC Method: Flow: 1 mL/min, detecter set at 210 nm and at Maxplot (210-400 nm range). Solvent A: Acetonitrile; Solvent B: 0.1% TFA in water. Elution method: A linear gradient of 0-100% A.
The compounds were extracted back into acetonitrile with rigorous vortex.

CC(=O)Oc1ccccc1C(=O)OCCSSCCO[N+](=O)[O-] [I-C1-NOPD4]
anti-inflammatory activity (in words) [1]: significant activity during the first two hours after drug administration
ulcer development (in words) (mucosal damage): none of the animals treated with the test compounds showed any signs of development of ulcers
release of parent drug / conversion to salicylate [2]: converting to the expected metabolite (salicylate)
